One may read the IC50 as the midpoint of a concentration-inhibition curve.

For this experiment, the system named is HEK293 NOD2/MDP-stimulated NF-kB reporter inhibition. Description: PubChem AID 2334.

SMILES strings stand for the structures.

Regarding `O=C(Nc1nc2c(F)cc(F)cc2s1)c1ccc([N+](=O)[O-])o1`, the IC50 was 15.6 µM.

The values above are taken from PubChem BioAssay AID2334 (Sanford-Burnham Center for Chemical Genomics, 2010).
